According to US12187717B2, “Compound and use thereof in treating autoimmune diseases” (PARENCHYMA BIOTECH INC., priority 2022, dated 2025):
Read-outs that look alike come from different tables or passages of the source.

Legend:
[1] = tested on: psoriasis; assay: Imiquimod-induced psoriasis model; assay type: in vivo, BALB/C mice; settings: 10 mg/kg oral daily, 0th to 5th days, back skin on 6th day
Experimental: Hair on the back of female BALB/C mice (8-10 weeks old) was shaved using a shaver and shaving cream, and 62.5 mg of 5% imiquimod cream was applied daily for 6 days to the shaved skin from the next day. Vaseline cream was applied to control mice (Vehicle). In the compound 6 administration group according to an embodiment of the present invention, 10 mg/kg of the compound per mouse was completely added to an ethanol-Cremophor EL mixture (1:1, v/v) corresponding to 15% (v/v) of the administered dose, and then, was diluted in phosphate buffered saline to prepare the final ethanol:Cremophor EL:phosphate buffered saline (7.5:7.5:85, v/v/v), followed by oral administration with 200 μl of the prepared solution daily for a total of 6 times from the 0th to the 5th days of the experiment. On the 6th day of the experiment, back skin tissues of mice were obtained to perform histology and mRNA experiments.

[2] = Pharmacokinetic parameters after oral or intravenous administration; assay type: in vivo; settings: rats; for bioavailability: read-out: Bioavailability (F %); for increase of AUClast compared to Comparative Example 1 / increase of Cmax compared to Comparative Example 1: oral
Experimental: For rats, an oral administration group was fasted for 16 hours, and an intravenous administration group was subjected to intravenous administration with 10 mL/kg of solution prepared by completely dissolving Compound 6 in an ethanol-Cremophor EL mixture corresponding to 7.5% (v/v) of the administered dose, and then diluting in phosphate buffered saline so as to be the final ethanol:Cremophor EL:phosphate buffered saline (0.375:0.375:9.25, v/v/v), without fasting, at the dose concentration listed in Table 3. The oral administration group was supplied with food about 4 hours after administration. Blood collection was performed on the intravenous administration group after 0.083, 0.5, 1, 2, 4, 8, 24 hours from the administration and on the oral administration group after 0.5, 1, 2, 4, 8, 12, 24 hours from the administration, and plasma was recovered using centrifugation. In the recovered plasma, the drug concentration in the plasma was measured using UHPLC-MS/MS method.

[3] = pH-metric solubility and logP (SIRIUS T3); assay type: physicochemical
Experimental: After dissolving Compound 6 in ethanol, the solubility was measured and analyzed using a SIRIUS T3 machine.

[4] = tested on: Th17 cells; assay: IL-17A production of Th17 cells (flex set, flow cytometry); assay type: cell-based, C57BL/6 mice; settings: 1.0 μM, 2.5 μM and 5 μM, 3 days, compared to Comparative Example 1
Experimental: The spleen of C57BL/6 mice (8 to 12 weeks old, female) was excised, pulverized by adding IMDM medium, and then passed through a 40 μm cell strainer (BD Falcon), thereby obtaining a single cell suspension. The single cell suspension was centrifuged (1200 rpm, 5 minutes), and after discarding the supematant, 1 ml of ACK lysis buffer was added, followed by stirring for 1 minute and then washing the same with RPMI medium. After the single cell suspension was centrifuged, T-cells were separated using a Mouse CD4 Naive T cell Enrichment Kit (Invitrogen). The separated T-cells were prepared by resuspending them in RPMI-fetal bovine serum (FBS) 10%+2-ME (mercaptoethanol) medium at 1×10^6/ml. For T-cell activation, 5 μg/ml anti-CD3 (eBioscience™) was dispensed by 100 μl onto a 96-well plate, reacted in a cell incubator (37° C., 5% CO2 incubator) for 4 hours, and washed with phosphate buffered saline to prepare the plate. The T-cells were dispensed by 200 μl onto the prepared plate, and each well was treated with 2 μg/ml of anti-CD28 (eBioscience™), 3 ng/ml of TGFβ-1 (R&D systems), 10 ng/ml of IL-2 (R&D systems), 5 μg/ml of anti-mouse IFN-γ (Bio X cell), and 5 μg/ml of anti-mouse IL-4 (Bio X cell). […]

[5] = rat, plasma, Intravenous (IV), 1 mg/kg
[6] = rat, plasma, Oral (PO), 10 mg/kg
[7] = rat, plasma, Oral (PO), 50 mg/kg
[8] = Oral (PO), 10 mg/kg (reference dose, dose ratio 1)
[9] = Oral (PO), 50 mg/kg relative to 10 mg/kg (dose ratio 5)
[10] = 10 mg/kg vs Comparative Example 1 at 10 mg/kg
[11] = 50 mg/kg vs Comparative Example 1 at 100 mg/kg

AUC(0-t) [2, 5]: 1160 ng·h/mL | C0 [2, 5]: 1420 ng/mL | clearance [2, 5]: 14.4 mL/min/kg | half-life [2, 5]: 1.04 h | Vd ([2]; rat, plasma, Intravenous (IV), 1 mg/kg, read-out: Vdss): 0.924 L/kg | AUC(0-t) [2, 6]: 4350 ng·h/mL | Cmax [2, 6]: 742 ng/mL | Tmax [2, 6]: 2 h | half-life [2, 6]: 2 h | bioavailability [2, 6]: 37.3% | AUC(0-t) [2, 7]: 43100 ng·h/mL | Cmax [2, 7]: 4590 ng/mL | Tmax [2, 7]: 4 h | half-life [2, 7]: 3.83 h | bioavailability [2, 7]: 73.9% | AUClast Ratio [2, 8]: 1.0 | Cmax ratio [2, 8]: 1.0 | AUClast Ratio [2, 9]: 9.9 | Cmax ratio [2, 9]: 6.2 | increase of AUClast compared to Comparative Example 1 [2, 10]: 5.9 times | increase of Cmax compared to Comparative Example 1 [2, 10]: 11.9 times | increase of AUClast compared to Comparative Example 1 [2, 11]: 66.8 times | increase of Cmax compared to Comparative Example 1 [2, 11]: 30.2 times | pH-metric solubility molarity relative to Comparative Example 1 ([3]; Compound 6 vs Comparative Example 1): about 3.92 times | logP ([3]; pH-metric results, SIRIUS T3): 3.04 | pH-metric solubility, Molarity ([3]; pH-metric results, SIRIUS T3): 14.3 μM | pH-metric solubility, Weight/ml ([3]; pH-metric results, SIRIUS T3): 6.104 μg/ml
Compound: O=C(Cc1c[nH]c2ccc(Cl)cc12)Nc1nc2ccc(N3CCOCC3)cc2s1 [Compound 6, 2-(5-chloro-1H-indol-3-yl)-N-(6-morpholinobenzo[d]thiazol-2-yl)acetamide]
Foxp3 expression in skin lesions [1]: markedly increased | IL-10 expression in skin lesions [1]: markedly increased | IL-17a mRNA expression level in skin lesions [1]: significantly reduced | S100a8 mRNA expression level in skin lesions [1]: significantly reduced | epithelial thickness [1]: significantly reduced | IL-17A production of Th17 cells [4]: significantly decreased
